This note sets out measurements from patent publication US12473282B2, “Biphenyl fluorine double bond derivative, preparation method therefor, and pharmaceutical application thereof” (Abbisko Therapeutics Co., Ltd., priority 2020, dated 2025).

The target of experiment [1] is interaction between PD-1 and PD-L1 (Homo sapiens (Human), UniProt Q9NZQ7). The experiment can be described thus: PD1-PDL1 HTRF binding activity test (Cisbio PD-1/PD-L1 binding assay kit). On the procedure:
I. PD1-PDL1 HTRF Binding Activity Test
The effect of compounds of the examples of the present invention on the interaction between PD-1 and PD-L1 was determined by the PD-1/PD-L1 binding assay kit from Cisbio (#64ICP01PEG or 64ICP01PEH). The detailed experimental process was as follows: • 1. Pre-diluted compound solution, 4 μL of Tag1-PD-L1 and 4 μL of Tag2-PD1 were added to each well of a 384-well plate; • 2. After the mixture was incubated at room temperature for 15 min, 5 μL of anti-Tag1-Eu3+ antibody and 5 μL of anti-Tag2-XL665 antibody were then added; • 3. After incubated for 2 hrs at room temperature or overnight at 4° C., plates were read on Envision of Pelkin Elmer; and readings at 665 nm and 620 nm were recorded, and the ratio of the two readings was taken as a reading for each well; • 4. The reading of each well after compound treatment was compared with the reading of DMSO treated wells to obtain the percent inhibition of the compound; • 5. IC50 values of compounds and positive compounds of the examples of the present invention were determined by non-linear regression analysis of percent inhibition at different compound concentrations. II. Jurkat Reporter Gene Cellular Assay
(In TR-FRET formats the signal depends on donor and acceptor labels being close together.)

A short description of experiment [2]: Jurkat reporter gene cellular assay. The note with it: Homo sapiens; Jurkat/NF-κB-luc/PD1 + Raji-PD-L1 coculture, OKT3 1 μg/mL, 6 hrs, activation fold; read-out: Cell Activity EC50. The class given is cell-based. On the procedure: The effect of compounds of the examples of the present invention and positive compounds on the interaction between PD-1 and PD-L1 expressed on cell surfaces, and the related influence on T cell functions, were determined by a Jurkat reporter gene cellular assay.
Briefly, the reporter gene plasmid of NF-κB-luc and the plasmid of human PD-1 were transfected into Jurkat cells to establish a stably transfected cell line capable of stably expressing both PD-1 and NF-κB-Luc reporter genes; the expression level of PD-1 on the cell surface was confirmed by flow cytometry; and the expression of the reporter gene was confirmed via the response of the reporter gene stimulated by OKT-3 and Raiji cells.
In addition, the plasmid of human PD-L1 was transfected into Raji cells to obtain a cell line capable of stably expressing PD-L1. Jurkat/NF-κB-luc/PD1 cells and Raji-PD-L1 cells were then cocultured and stimulated with OKT-3. On this basis, the compounds were added, and the enhancement of the signal pathway of T cell activation by the inhibitory effect of the compounds on the interaction between PD-1 and PD-L1 was evaluated by readings of reporter gene responses. The specific experimental process was as follows: • 1. 30 μL of compound or antibody solution was added to each well of a white 96-well plate (corning, 3610) at different diluted concentrations, and 10 μL of OKT3 (Biolegend, 317326) was then added (the final concentration of OKT3: 1 μg/mL); • 2. 20 μL of Raji-PD-L1 cell suspension was added to each well with 5*10^4 cells for each well, and was incubated in an incubator for 20 min; • 3. 20 μL of Jurkat/NF-Kb-luc/PD-1 cell suspension was added to each well with 5*10^4 cells for each well, and well mixed, and 6 hrs later, Bright-glo (Promega, E2620) was applied and plates were read on Envision; • 4. The reading of each well treated with the compound was compared with the reading of each well treated with DMSO to obtain the activation fold of the compound; • 5. EC50 values of compounds and positive compounds of the examples of the present invention were determined by non-linear regression analysis of activation folds at different compound concentrations.
(Reporter assays use an easily measured gene product as a stand-in for the process of interest.)

SMILES strings stand for the structures.

Sequence of interaction between PD-1 and PD-L1 (Q9NZQ7 19-238): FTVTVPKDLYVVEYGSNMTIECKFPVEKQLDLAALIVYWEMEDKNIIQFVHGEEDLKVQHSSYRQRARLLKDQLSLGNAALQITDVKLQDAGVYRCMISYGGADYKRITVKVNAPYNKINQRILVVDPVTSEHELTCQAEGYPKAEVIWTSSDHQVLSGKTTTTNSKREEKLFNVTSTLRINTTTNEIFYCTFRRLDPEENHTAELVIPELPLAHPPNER

For the molecule `C[C@@H](O)CN1CCc2c(nc(/C(F)=C/c3cccc(-c4cccc(NC(=O)c5nc6c(n5C)CCN(CCC57CCC(C(=O)O)(CC5)C7)C6)c4Cl)c3Cl)n2C)C1` [Example 7, (R,Z)-4-(2-(2-((2,2′-dichloro-3′-(2-fluoro-2-(5-(2-hydroxypropyl)-1-methyl-4,5,6,7-tetrahydro-1H-imidazo[4,5-c]pyridin-2-yl)vinyl)-[1,1′-biphenyl]-3-yl)carbamoyl)-1-methyl-1,4,6,7-tetrahydro-5H-imidazo[4,5-c]pyridin-5-yl)ethyl)bicyclo[2.2.1]heptane-1-carboxylic acid], the IC50 – broadly, the concentration at which inhibition is half-maximal – in experiment [1] came to 0.419 nM. For the same molecule, the EC50 (in general, the concentration needed to bring the measured effect to its halfway point) in experiment [2] was determined as 62.2 nM.
`CC(C)N1CCc2c(nc(/C(F)=C/c3cccc(-c4cccc(NC(=O)c5nc6c(n5C)CCN(CCC57CCC(C(=O)O)(CC5)C7)C6)c4Cl)c3Cl)n2C)C1` [Example 8, (Z)-4-(2-(2-((2,2′-dichloro-3′-(2-fluoro-2-(5-isopropyl-1-methyl-4,5,6,7-tetrahydro-1H-imidazo[4,5-c]pyridin-2-yl)vinyl)-[1,1′-biphenyl]-3-yl)carbamoyl)-1-methyl-1,4,6,7-tetrahydro-5H-imidazo[4,5-c]pyridin-5-yl)ethyl)bicyclo[2.2.1]heptane-1-carboxylic acid] showed a half-inhibitory concentration (IC50) in experiment [1] of 0.516 nM. Besides, in experiment [2], the EC50 was 97.5 nM.
Take `COc1cc(/C(F)=C/c2cccc(-c3cccc(NC(=O)c4nc5c(n4C)CCN(CCC46CCC(C(=O)O)(CC4)C6)C5)c3Cl)c2Cl)ncc1CNCCO` [Example 16, (Z)-4-(2-(2-((2,2′-dichloro-3′-(2-fluoro-2-(5-(((2-hydroxyethyl)amino)methyl)-4-methoxypyridin-2-yl)vinyl)-[1,1′-biphenyl]-3-yl)carbamoyl)-1-methyl-1,4,6,7-tetrahydro-5H-imidazo[4,5-c]pyridin-5-yl)ethyl)bicyclo[2.2.1]heptane-1-carboxylic acid]: in experiment [1], the IC50 came to 0.191 nM. Moreover, the half-maximal effective concentration (EC50) in experiment [2] was 133 nM.
`COc1cc(/C(F)=C/c2cccc(-c3cccc(NC(=O)c4nc5c(n4C)CCN(CCC46CCC(C(=O)O)(CC4)C6)C5)c3Cl)c2Cl)ncc1CN1Cc2cccnc2C1` [Example 68, (Z)-4-(2-(2-((2,2′-dichloro-3′-(2-(5-((5,7-dihydro-6H-pyrrolo[3,4-b]pyridin-6-yl)methyl)-4-methoxypyridin-2-yl)-2-fluorovinyl)-[1,1′-biphenyl]-3-yl)carbamoyl)-1-methyl-1,4,6,7-tetrahydro-5H-imidazo [4,5-c]pyridin-5-yl)ethyl)bicyclo[2.2.1]heptane-1-carboxylic acid]: in experiment [2], the EC50 came to 954 nM.
As to `COc1cc(/C(F)=C/c2cccc(-c3cccc(NC(=O)c4nc5c(n4C)CCN(CCC46CCC(C(=O)O)(CC4)C6)C5)c3Cl)c2Cl)ncc1CN1CCO[C@@H](CO)C1` [Example 69, (R,Z)-4-(2-(2-((2,2′-dichloro-3′-(2-fluoro-2-(5-((2-(hydroxymethyl)morpholino)methyl)-4-methoxypyridin-2-yl)vinyl)-[1,1′-biphenyl]-3-yl)carbamoyl)-1-methyl-1,4,6,7-tetrahydro-5H-imidazo[4,5-c]pyridin-5-yl)ethyl)bicyclo[2.2.1]heptane-1-carboxylic acid], the EC50 in experiment [2] was determined as 116 nM.
Consider `COc1cc(/C(F)=C/c2cccc(-c3cccc(NC(=O)c4nc5c(n4C)CCN(CCC46CCC(C(=O)O)(CC4)C6)C5)c3Cl)c2Cl)ncc1CN1CCO[C@H](CO)C1` [Example 70, (S,Z)-4-(2-(2-((2,2′-dichloro-3′-(2-fluoro-2-(5-((2-(hydroxymethyl)morpholino)methyl)-4-methoxypyridin-2-yl)vinyl)-[1,1′-biphenyl]-3-yl)carbamoyl)-1-methyl-1,4,6,7-tetrahydro-5H-imidazo[4,5-c]pyridin-5-yl)ethyl)bicyclo[2.2.1]heptane-1-carboxylic acid], for which the EC50 in experiment [2] amounted to 128 nM.
As for `COc1cc(/C(F)=C/c2cccc(-c3cccc(NC(=O)c4nc5c(n4C)CCN(CCC46CCC(C(=O)O)(CC4)C6)C5)c3Cl)c2Cl)ncc1CN1CC[C@@](C)(O)C1` [Example 71, (R,Z)-4-(2-(2-((2,2′-dichloro-3′-(2-fluoro-2-(5-((3-hydroxy-3-methylpyrrolidin-1-yl)methyl)-4-methoxypyridin-2-yl)vinyl)-[1,1′-biphenyl]-3-yl)carbamoyl)-1-methyl-1,4,6,7-tetrahydro-5H-imidazo[4,5-c]pyiidin-5-yl)ethyl)bicyclo[2.2.1]heptane-1-carboxylic acid], in experiment [2], the EC50 turned out to be 42.1 nM.
For the molecule `COc1cc(/C(F)=C/c2cccc(-c3cccc(NC(=O)c4nc5c(n4C)CCN(CCC46CCC(C(=O)O)(CC4)C6)C5)c3Cl)c2Cl)ncc1CN1CC[C@](C)(O)C1` [Example 72, (S,Z)-4-(2-(2-((2,2′-dichloro-3′-(2-fluoro-2-(5-((3-hydroxy-3-methylyrrolidin-1-yl)methyl)-4-methoxypyridin-2-yl)vinyl)-[1,1′-biphenyl]-3-yl)carbamoyl)-1-methyl-1,4,6,7-tetrahydro-5H-imidazo[4,5-c]pyridin-5-yl)ethyl)bicyclo[2.2.1]heptane-1-carboxylic acid], the 50% effective concentration (EC50) in experiment [2] was determined as 116 nM.
Regarding `COc1cc(/C(F)=C/c2cccc(-c3cccc(NC(=O)c4nc5c(n4C)CCN(CCC46CCC(C(=O)O)(CC4)C6)C5)c3Cl)c2Cl)ncc1CN1CC[C@H](C(=O)O)C1` [Example 74, (S,Z)-1-((6-(2-(3′-(5-(2-(4-carboxybicyclo[2.2.1]heptan-1-yl)ethyl)-1-methyl-4,5,6,7-tetrahydro-1H-imidazo[4,5-c]pyridine-2-carboxamido)-2,2′-dichloro-[1,1′-biphenyl]-3-yl)-1-fluorovinyl)-4-methoxypyridin-3-yl)methyl)pyrrolidine-3-carboxylic acid], the EC50 in experiment [2] came out at 136 nM.
On to `COc1cc(/C(F)=C/c2cccc(-c3cccc(NC(=O)c4nc5c(n4C)CCN(CCC46CCC(C(=O)O)(CC4)C6)C5)c3Cl)c2Cl)ncc1CN1CC[C@](C)(C(=O)O)C1` [Example 76, (S,Z)-1-((6-(2-(3′-(5-(2-(4-carboxybicyclo[2.2.1]heptan-1-yl)ethyl)-1-methyl-4,5,6,7-tetrahydro-1H-imidazo[4,5-c]pyridine-2-carboxamido)-2,2′-dichloro-[1,1′-biphenyl]-3-yl)-1-fluorovinyl)-4-methoxypyridin-3-yl)methyl)-3-methylpyrrolidine-3-carboxylic acid], for which, in experiment [2], the EC50 was determined as 98.1 nM.
The same measure, in the same setting: next, `COc1cc(/C(F)=C/c2cccc(-c3cccc(NC(=O)c4nc5c(n4C)CCN(CCC46CCC(C(=O)O)(CC4)C6)C5)c3Cl)c2Cl)ncc1CN1CC2CCC1C2` (stereo not drawn) [Example 77, (Z)-4-(2-(2-((3′-(2-(5-((2-azabicyclo[2.2.1]heptan-2-yl)methyl)-4-methoxypyridin-2-yl)-2-fluorovinyl)-2,2′-dichloro-[1,1′-biphenyl]-3-yl)carbamoyl)-1-methyl-1,4,6,7-tetrahydro-5H-imidazo[4,5-c]pyridin-5-yl)ethyl)bicyclo[2.2.1]heptane-1-carboxylic acid]: 54.4 nM.
`COc1cc(/C(F)=C/c2cccc(-c3cccc(NC(=O)c4nc5c(n4C)CCN(CCC46CCC(C(=O)O)(CC4)C6)C5)c3Cl)c2Cl)ncc1CN1CC[C@H](C)C1` [Example 78, (S,Z)-4-(2-(2-((2,2′-dichloro-3′-(2-fluoro-2-(4-methoxy-5-((3-methylpyrrolidin-1-yl)methyl)pyridin-2-yl)vinyl)-[1,1′-biphenyl]-3-yl)carbamoyl)-1-methyl-1,4,6,7-tetrahydro-5H-imidazo[4,5-c]pyridin-5-yl)ethyl)bicyclo[2.2.1]heptane-1-carboxylie acid]: in experiment [2], the EC50 came out at 56.5 nM.
